From US8846739B2, “TGR5 agonists” (Exelixis Patent Company LLC, priority 2009, dated 2014)

How the values were obtained:
human TGR5 (h-TGR5) = molecular target: T1, human TGR5 (h-TGR5) (Homo sapiens, UniProt Q8TDU6); assay: TGR5/CRE-Luciferase Assay; type: cell-based; details: HEK 293 hTGR5/CRE-Luc cells, 6 hours incubation, read-out: CRE-Luc Agonist (EC50)
T1 sequence (Q8TDU6 1-330): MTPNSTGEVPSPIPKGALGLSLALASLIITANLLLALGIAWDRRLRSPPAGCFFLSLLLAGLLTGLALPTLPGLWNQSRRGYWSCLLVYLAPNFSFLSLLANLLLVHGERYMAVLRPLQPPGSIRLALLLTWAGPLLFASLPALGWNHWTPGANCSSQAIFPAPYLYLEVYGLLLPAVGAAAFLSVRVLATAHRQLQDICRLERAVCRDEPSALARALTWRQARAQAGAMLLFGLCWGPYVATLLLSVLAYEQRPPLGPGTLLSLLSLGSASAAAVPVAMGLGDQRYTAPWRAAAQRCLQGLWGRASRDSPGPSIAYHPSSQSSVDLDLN
Procedure, shortened: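 HEK 293 CRE-Luciferase cells stably expressing the receptor, plated in DMEM 18-20 h before assay, then exposed to serially diluted compounds (DMEM with 5% DMSO) for 6 h. Luciferase read-out after lysis; EC50 from dose-response.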

h-TGR5 = molecular target: T2, h-TGR5 (Homo sapiens, UniProt Q8TDU6); assay: TGR5 cAMP Assay using Cisbio cAMP Dynamic 2 htrf assay kit; type: cell-based; details: hTGR5CRE-luc HEK 293 cells
T2 sequence (Q8TDU6 1-330): T1 sequence (Q8TDU6 1-330)

Row | EC50 (human TGR5 (h-TGR5)) | EC50 (h-TGR5) | Structure (SMILES)
1 | 100 to 1000 nM | 100 to 1000 nM | CC(C)(c1ccc(Cl)c(O)c1)c1cnc(SCc2c(F)cc(S(=O)(=O)NCCC[N+](C)(C)C)cc2F)n1-c1ccc(F)cc1 [Compound 13a, 3-(4-((5-(2-(4-chloro-3-hydroxyphenyl)propan-2-yl)-1-(4-fluorophenyl)-1H-imidazol-2-ylthio)methyl)-3,5-difluorophenylsulfonamido)-N,N,N-trimethylpropan-1-aminium 2,2,2-trifluoroacetate]
2 | < 100 nM | < 100 nM | COc1cc(C(C)(C)c2cnc(SCc3c(F)cc(S(=O)(=O)NCCc4ccc[n+](C)c4)cc3Cl)n2-c2ccc(F)cc2)ccc1F [Compound 11, 3-(2-(3-chloro-5-fluoro-4-((5-(2-(4-fluoro-3-methoxyphenyl)propan-2-yl)-1-(4-fluorophenyl)-1H-imidazol-2-ylthio)methyl)phenylsulfonamido)ethyl)-1-methylpyridinium chloride]
3 | < 100 nM | < 100 nM | COc1cc(C(C)(C)c2cnc(SCc3c(F)cc(S(=O)(=O)N(CCO)CCC[N+](C)(C)C)cc3F)n2-c2ccc(F)cc2)ccc1Cl [Compound 12f, 3-(4-((5-(2-(4-Chloro-3-methoxyphenyl)propan-2-yl)-1-(4-fluorophenyl)-1H-imidazol-2-ylthio)methyl)-3,5-difluoro-N-(2-hydroxyethyl)phenylsulfonamido)-N,N,N-trimethylpropan-1-aminium 2,2,2-trifluoroacetate]
4 | < 100 nM | < 100 nM | COc1cc(C(C)(C)c2cnc(SCc3c(F)ccc(S(=O)(=O)NCCC[N+](C)(C)C)c3F)n2-c2ccc(F)cc2)ccc1Cl [Example 7a, 3-({[3-({[5-{1-[4-chloro-3-(methyloxy)phenyl]-1-methylethyl}-1-(4-fluorophenyl)-1H-imidazol-2-yl]thio}methyl)-2,4-difluorophenyl]sulfonyl}amino)-N,N,N-trimethylpropan-1-aminium]
5 | < 100 nM | < 100 nM | COC(=O)[C@@H](C)N(CCC[N+](C)(C)C)S(=O)(=O)c1cc(F)c(CSc2ncc(C(C)(C)c3ccc(Cl)c(OC)c3)n2-c2ccc(F)cc2)c(F)c1 [Compound 14, (R)-3-(4-((5-(2-(4-chloro-3-methoxyphenyl)propan-2-yl)-1-(4-fluorophenyl)-1H-imidazol-2-ylthio)methyl)-3,5-difluoro-N-(1-methoxy-1-oxopropan-2-yl)phenylsulfonamido)-N,N,N-trimethylpropan-1-aminium 2,2,2-trifluoroacetate]
6 | < 100 nM | < 100 nM | CC[C@@H](C(=O)O)N(CCC[N+](C)(C)C)S(=O)(=O)c1cc(F)c(CSc2ncc(C(C)(C)c3ccc(Cl)c(OC)c3)n2-c2ccc(F)cc2)c(Cl)c1 [Compound 14w, 3-([(1S)-1-carboxypropyl]{[3-chloro-4-({[5-{1-[4-chloro-3-(methyloxy)phenyl]-1-methylethyl}-1-(4-fluorophenyl)-1H-imidazol-2-yl]thio}methyl)-5-fluorophenyl]sulfonyl}amino)-N,N,N-trimethylpropan-1-aminium]
7 | < 100 nM | < 100 nM | COc1cc(C(C)(C)c2cnc(SCc3c(F)cc(S(=O)(=O)N(CCCC[N+]45CCN(CC4)CC5)[C@H](C)C(=O)O)cc3F)n2-c2ccc(F)cc2)ccc1Cl [Compound 22a, N-[4-(4-aza-1-azoniabicyclo[2.2.2]oct-1-yl)butyl]-N-{[4-({[5-{1-[4-chloro-3-(methyloxy)phenyl]-1-methylethyl}-1-(4-fluorophenyl)-1H-imidazol-2-yl]thio}methyl)-3,5-difluorophenyl]sulfonyl}-D-alanine]

Row | Structure (SMILES) | EC50 (human TGR5 (h-TGR5)) | EC50 (h-TGR5)
8 | COc1cc(-n2c(C(C)(C)c3ccc4onc(N)c4c3)cnc2SCc2c(F)cc(C(=O)N[C@H]3CC[N+](C)(C)C3)cc2F)ccc1F [Example 2k, (3S)-3-[({4-[({5-[1-(3-amino-1,2-benzisoxazol-5-yl)-1-methylethyl]-1-[4-fluoro-3-(methyloxy)phenyl]-1H-imidazol-2-yl}thio)methyl]-3,5-difluorophenyl}carbonyl)amino]-1,1-dimethylpyrrolidinium] | < 100 nM | < 100 nM
